Assays:
POPC LUVs [1] = experiment: Isothermal titration calorimetry (ITC), peptide-lipid binding; details: LUVs injected into peptide solution
Description: (§1) So, the POPC LUV liposome system was employing to investigate the binding activity of FS-01 to lipid membranes. Large unilamellar vesicles (LUVs) of 1-palmitoyl-2-oleoyl-sn-glycero-3-phosphocholine (POPC) liposome were prepared as previously described (Liu, S., et al. J.BIOL.CHEM. 2007; 282: 9612-9620). Briefly, 20 mg of POPC stock solution was dried under a stream of nitrogen and stored in vacuum overnight to completely remove trace amounts of organic solvent. The dried lipid film was suspended by vortexing in 2 mL PBS buffer. The resultant multilamellar vesicle suspension was freeze-thawed for 5 cycles and then successively extruded through two stacked polycarbonate filters (0.1 μm) 13 times using an Avanti miniextruder.
Solutions were degassed under vacuum prior to use. LUVs of POPC were injected into the chamber containing a peptide solution or buffer only (as a control). The heats generated in control experiments by injecting lipid vesicles into buffer without a peptide were subtracted from the heats produced in the corresponding peptide-lipid binding experiments. Data acquisition and analyses were performed using MicroCal's Origin software (Version 7.0).

NL4-3 (N42T/N43K) = assay type: cell-based, HIV-1; details: T20-resistant (R) virus, MT-2 cells, p24, fourth day; read-out: IC50 (Mean ± SD)
Description: (§2) Two T20-sensitive and five T20-resistant strains with well defined genetic mutations conferring the resistance were used in this experiment (Rimsky, L. T., et al. J.VIROL. 1998; 72: 986-993). Briefly, 1×10^4 MT-2 cells were infected with HIV-1 isolates at 100 TCID50 (50% tissue culture infective dose) in 200 μl RPMI 1640 medium containing 10% FBS in the presence or absence of FS-01 at graded concentrations overnight. Then the culture supernatants were removed and fresh media without FS-01 were added. On the fourth day post-infection, 100 μl of culture supernatants were collected from each well, mixed with equal volumes of 5% Triton X-100 and assayed for p24 antigen by ELISA.

NL4-3 (parental) = assay type: cell-based, HIV-1; details: T20-sensitive (S) virus, MT-2 cells, p24, fourth day; read-out: IC50 (Mean ± SD)
Description: as §2

NL4-3 (V38A/N42T) = assay type: cell-based, HIV-1; details: T20-resistant (R) virus, MT-2 cells, p24, fourth day; read-out: IC50 (Mean ± SD)
Description: as §2

NL4-3 (V38E/N42S) = assay type: cell-based, HIV-1; details: T20-resistant (R) virus, MT-2 cells, p24, fourth day; read-out: IC50 (Mean ± SD)
Description: as §2

NL4-3 (V38A/N42D) = assay type: cell-based, HIV-1; details: T20-resistant (R) virus, MT-2 cells, p24, fourth day; read-out: IC50 (Mean ± SD)
Description: as §2

NL4-3 (V38A) = assay type: cell-based, HIV-1; details: T20-resistant (R) virus, MT-2 cells, p24, fourth day; read-out: IC50 (Mean ± SD)
Description: as §2

NL4-3 (N42S) = assay type: cell-based, HIV-1; details: T20-sensitive (S) virus, MT-2 cells, p24, fourth day; read-out: IC50 (Mean ± SD)
Description: as §2

POPC LUVs [2] = experiment: Tryptophan fluorescence spectroscopy, peptide-lipid interaction; assay type: binding; details: peptide 10 μM, POPC LUVs 2 mM, excitation 295 nm
Description: as §1
Spectra were baseline-corrected by subtracting blank spectra of the corresponding solutions without peptide.

HIV-1IIIB = experiment: HIV-1IIIB-mediated infection of MT-2 cells; assay type: cell-based
Description: (§3) A dye transfer assay was used for detection of HIV-1 mediated cell-cell fusion as previously described in (Jiang, S., et al. Antimicrob.Agents Chemother. 2004; 48: 4349-4359. In brief, H9/HIV-1IIIB-infected cells were labeled with a fluorescent reagent, Calcein-AM (Molecular Probes, Inc., Eugene, OR) and then incubated with MT-2 cells (ratio =1:5) in 96-well plates at 37° C. for 2 h in the presence or absence of peptides. The fused and unfused calcein-labeled HIV-1-infected cells were counted under an inverted fluorescence microscope (Zeiss, Germany) with an eyepiece micrometer disc. The inhibition percent of cell-cell fusion and the IC50 values were calculated as described. […] The inhibitory activity of FS-01 on HIV-1-mediated infection was conducted too.
as §2, with “On the fourth day post-infection, 100 μl of culture supernatants were collected from each well, mixed with equal volumes of 5% Triton X-100 and assayed for p24 antigen by ELISA.” left out

92TH009 (clade E, R5) = experiment: Primary HIV-1 isolate infection of PBMC, p24 ELISA; assay type: cell-based; details: p24 production, 7 days post infection
Description: (§4) The inhibitory activity of FS-01 against primary HIV-1 isolates was determined as previously described in (Jiang, S., et al. ANTIMICROB. AGENTS CHEMOTHER. 2004; 48: 4349-4359. The peripheral blood mononuclear cells (PBMC) were isolated from the blood of healthy donors using a standard density gradient (Histopaque-1077, Sigma) centrifugation. The cells were plated in 75-cm plastic flasks and incubated at 37° C. for 2 h. The nonadherent cells were collected and resuspended at 5×10^5/mL in RPMI 1640 medium containing 10% FBS, 5 μg of phytohemagglutinin (PHA)/mL, and 100 U of interleukin-2/mL, followed by incubation at 37° C. for 3 days. The PHA-stimulated cells were infected with the corresponding primary HIV-1 isolates at a multiplicity of infection (MOI) of 0.01 in the absence or presence of FS-01 at graded concentrations. Culture media were changed every 3 days. The supernatants were collected 7 days post infection and tested for p24 antigen by ELISA. The percent inhibition of p24 production and IC50/IC90 values were calculated.

93BR020 (clade F, X4R5) = experiment: Primary HIV-1 isolate infection of PBMC, p24 ELISA; assay type: cell-based; details: p24 production, 7 days post infection
Description: as §4

92US657 (clade B, R5) = experiment: Primary HIV-1 isolate infection of PBMC, p24 ELISA; assay type: cell-based; details: p24 production, 7 days post infection
Description: as §4

92UG001 (clade D, X4R5) = experiment: Primary HIV-1 isolate infection of PBMC, p24 ELISA; assay type: cell-based; details: p24 production, 7 days post infection
Description: as §4

93IN101 (clade C, R5) = experiment: Primary HIV-1 isolate infection of PBMC, p24 ELISA; assay type: cell-based; details: p24 production, 7 days post infection
Description: as §4

94UG103 (clade A, X4R5) = experiment: Primary HIV-1 isolate infection of PBMC, p24 ELISA; assay type: cell-based; details: p24 production, 7 days post infection
Description: as §4

N36 [3] = target: T1, N36 (Human immunodeficiency virus type 1 group M subtype B, UniProt P04578); experiment: Native polyacrylamide gel electrophoresis (N-PAGE), 6-HB formation; assay type: binding, HIV; details: 40 μM, 37° C. 30 min
T1 construct: protease-resistant N- and C-peptides from gp41
Description: Native polyacrylamide gel electrophoresis (N-PAGE) was carried out to determine the 6-HB formation between the N- and C-peptides using the described previously (Liu, S., et al. PEPTIDES 2003, 24:1303-1313). […] The mixture was loaded onto a 10×1.0-cm precast 18% Tris-glycine gels (Invitrogen, Carlsbad, Calif.) at 25 μL/per well with an equal volume of Tris-glycine native sample buffer (Invitrogen). Gel electrophoresis was carried out with 125 V constant voltage at room temperature for 2 h. The gel was then stained with Coomassie blue and imaged with a FluorChem 8800 Imaging System (Alpha Innotech Corp., San Leandro, Calif.).

[4] = tested on: HIV-1IIIB-mediated cell-cell fusion (H9/HIV-1IIIB-infected cells with MT-2 cells); experiment: Dye transfer assay of HIV-1 mediated cell-cell fusion; assay type: cell-based
Description: as §3

N36 [5] = target: T1, N36; experiment: Circular dichroism (CD) spectroscopy and thermal denaturation of peptide/N36 mixtures; assay type: binding, HIV
Description: Circular dichroism (CD) spectroscopy was performed following the method previously described in He, Y., et al. J.BIOL.CHEM. 2007; 282: 25631-25639. […] The final peptide concentration was 10 μM in 50 mM sodium phosphate and 150 mM NaCl, pH 7.2. The N-, C-peptides as well as FS-01 by itself was also tested. CD spectra of these individual peptides and peptide mixtures were acquired on Jasco spectropolarimeter (Model J-715, Jasco Inc., Japan) at room temperature using a 5.0-nm band with, 0.1-nm resolution, 0.1-cm path length, 4.0-s response time, and a 50-nm/min scanning speed. The spectra were corrected by subtraction of a blank corresponding to the solvent. The a-helical content was calculated from the CD signal by dividing the mean residue ellipticity at 222 nm by the value expected for 100% helix formation (−33,000 degrees cm^2 dmol^−1) according to existing literature (Shu, W., et al. BIOCHEMISTRY 2000; 39: 1634-1642; Chen, Y. H., et al. BIOCHEMISTRY 1974; 13: 3350-3359). Thermal denaturation was monitored at 222 nm by applying a thennal gradient of 2° C./min in the range of 4-98° C. To determine the reversibility, the peptide mixtures were then cooled to 4° C. and kept in the CD chamber at 4° C. for 30 min, followed by monitoring of thermal denaturation as described above. The melting curve was smoothened, and the midpoint of the thermal unfolding transition (Tm) values was calculated using Jasco software utilities.

[6] = target: T2, 6-HB between C34-biotin and N36 (Human immunodeficiency virus type 1 group M subtype B, UniProt P04578); experiment: ELISA (mAb NC-1) of inhibition of 6-helix bundle formation; assay type: biochemical, HIV
T2 construct: protease-resistant N- and C-peptides from gp41
Description: A 96-well polystyrene plate (Costar, Corning Inc., Corning, N.Y.) was coated with a 6-HB-specific monoclonal antibody NC-1 IgG (4 μg/mL in 0.1 M Tris, pH 8.8). […] The mixture was then added to the NC-1-coated plate, followed by incubation at room temperature for 30 min and washing with a washing buffer (PBS containing 0.1 % Tween 20) three times. Then streptavidin-labeled horseradish peroxidase (Invitrogen) and the substrate 3,3′,5,5′-tetramethylbenzidine (Sigma) were added sequentially. Absorbance at 450 nm (A450) was measured using an ELISA reader (Ultra 384, Tecan, Research Triangle Park, N.C.). The percent inhibition by the peptides and the IC50 values were calculated as previously described (Jiang, S. B., et al J.EXP.MED. 1991; 174: 1557-1563).

T1 sequence (P04578 546-581): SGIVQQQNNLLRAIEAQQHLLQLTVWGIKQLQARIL
T2 sequence (P04578 546-581): as above

Ac-SWETWEREIENYTRQIYRILEESQEQQDRNERDLLE-NH2 [FS-01]
binding constant to POPC LUVs (POPC LUVs [1]): too weak to calculate the binding constant | IC50 (NL4-3 (N42T/N43K)): 37.8 ± 15.6 nM | IC50 (NL4-3 (parental)): 12.6 ± 1.18 nM | IC50 (NL4-3 (V38A/N42T)): 30.4 ± 4.36 nM | IC50 (NL4-3 (V38E/N42S)): 43.5 ± 3.36 nM | IC50 (NL4-3 (V38A/N42D)): 47.8 ± 4.7 nM | IC50 (NL4-3 (V38A)): 3.44 ± 0.23 nM | IC50 (NL4-3 (N42S)): 2.68 ± 0.87 nM | shift of tryptophan fluorescence spectra in POPC LUVs compared to PBS (POPC LUVs [2]): did not show remarkable fluorescence spectra shift | inhibition of HIV-1IIIB-mediated infection of MT-2 cells, compared with T20 (HIV-1IIIB): more potent | IC50 (92TH009 (clade E, R5); read-out: IC50 (Mean ± SD)): 210 ± 9.91 nM | IC90 (92TH009 (clade E, R5); read-out: IC90 (Mean ± SD)): 619 ± 39 nM | IC50 (93BR020 (clade F, X4R5); read-out: IC50 (Mean ± SD)): 12.5 ± 6.76 nM | IC90 (93BR020 (clade F, X4R5); read-out: IC90 (Mean ± SD)): 71.6 ± 28.5 nM | IC50 (92US657 (clade B, R5); read-out: IC50 (Mean ± SD)): 27.8 ± 8.66 nM | IC90 (92US657 (clade B, R5); read-out: IC90 (Mean ± SD)): 212 ± 84 nM | IC50 (92UG001 (clade D, X4R5); read-out: IC50 (Mean ± SD)): 11.9 ± 3.01 nM | IC90 (92UG001 (clade D, X4R5); read-out: IC90 (Mean ± SD)): 35.7 ± 6.59 nM | IC50 (93IN101 (clade C, R5); read-out: IC50 (Mean ± SD)): 34.3 ± 3.21 nM | IC90 (93IN101 (clade C, R5); read-out: IC90 (Mean ± SD)): 90.6 ± 6.5 nM | IC50 (94UG103 (clade A, X4R5); read-out: IC50 (Mean ± SD)): 3.94 ± 1.29 nM | IC90 (94UG103 (clade A, X4R5); read-out: IC90 (Mean ± SD)): 7.43 ± 2.16 nM | 6-HB formation with N36 (up-shift of peptide band) (N36 [3]): able to form 6-HB with N36 | fold more active than T20 in inhibiting membrane fusion [4]: about 6 fold | IC50 ([4]; 37° C. for 2 h, read-out: IC50, inhibition of cell-cell fusion): 3.6 nM | higher melting temperature of FS-01/N36 complex compared to C34/N36 complex (N36 [5]): 10 °C | helical content in the presence of N36 (N36 [5]; CD at 222 nm, equal molar with N36, 10 μM, pH 7.2): 93% | formation of α-helical complexes with N36 (CD minimum at 208 and 222 nm) (N36 [5]; equal molar with N36, 10 μM): formation of secondary α-helical structure | melting temperature (Tm) of complex with N36 (N36 [5]; thermal denaturation monitored at 222 nm): about 72 °C | IC50 [6]: 120 nM

— patent US20100021427A1, “Use of Antiviral Peptides For Treatment of Infections Caused by Drug-Resistant HIV” (Tianjin FusoGen Pharmaceuticals, Inc., priority 2008, published 2010)
